Measurements published in ChEMBL document CHEMBL1201862, “PubChem BioAssay data set” (2004).
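Method: 48-hour compound exposure of cells in 96-well plates, five concentrations, linear interpolation of endpoints. GI50 is the concentration that inhibits growth by half.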 Active and inactive are the calls of the source. Cut-off read from the data, not from the text of the source: active = GI50 up to about 1.1 µM and inactive = higher.

Assays:
Experiment in all cases: NCI tumour cell line growth inhibition, 48 h
EKVX = system: EKVX
Hs-578T = system: Hs-578T
OVCAR-8 = system: OVCAR-8
OVCAR-4 = system: OVCAR-4
Malme-3M = system: Malme-3M
K562 = system: K562
PC-3 = system: PC-3
MDA-N = system: MDA-N
RXF 393 = system: RXF 393
CAKI-1 = system: CAKI-1
SF-295 = system: SF-295
UO-31 = system: UO-31
SR = system: SR
SK-MEL-5 = system: SK-MEL-5
HOP-92 = system: HOP-92
M14 = system: M14
A549 = system: A549
SK-MEL-2 = system: SK-MEL-2
NCI/ADR-RES = system: NCI/ADR-RES
MDA-MB-231 = system: MDA-MB-231
CCRF-CEM = system: CCRF-CEM
SNB-19 = system: SNB-19
NCI-H460 = system: NCI-H460
TK-10 = system: TK-10
MCF7 = system: MCF7
KM12 = system: KM12
HCT-15 = system: HCT-15
SN12C = system: SN12C
HOP-62 = system: HOP-62
NCI-H23 = system: NCI-H23
HCT-116 = system: HCT-116
UACC-62 = system: UACC-62
NCI-H226 = system: NCI-H226
U-251 = system: U-251
DU-145 = system: DU-145
786-0 = system: 786-0
SW-620 = system: SW-620
RPMI-8226 = system: RPMI-8226
SF-268 = system: SF-268
UACC-257 = system: UACC-257
NCI-H522 = system: NCI-H522
LOX IMVI = system: LOX IMVI
SK-MEL-28 = system: SK-MEL-28
SF-539 = system: SF-539
SNB-75 = system: SNB-75
OVCAR-3 = system: OVCAR-3
A498 = system: A498
SK-OV-3 = system: SK-OV-3
T47D = system: T47D
HL-60 = system: HL-60
ACHN = system: ACHN
HCC 2998 = system: HCC 2998
HT-29 = system: HT-29
MOLT-4 = system: MOLT-4
IGROV-1 = system: IGROV-1
COLO 205 = system: COLO 205

c1ccc(CSC2(SCc3ccccc3)CCCCC2)cc1
GI50 (EKVX): > 10 µM (inactive)
GI50 (Hs-578T): > 10 µM (inactive)
GI50 (OVCAR-8): > 10 µM (inactive)
GI50 (OVCAR-4): > 10 µM (inactive)
GI50 (Malme-3M): > 10 µM (inactive)
GI50 (K562): > 10 µM (inactive)
GI50 (PC-3): > 10 µM (inactive)
GI50 (MDA-N): > 10 µM (inactive)
GI50 (RXF 393): > 10 µM (inactive)
GI50 (CAKI-1): > 10 µM (inactive)
GI50 (SF-295): > 10 µM (inactive)
GI50 (UO-31): > 10 µM (inactive)
GI50 (SR): > 10 µM (inactive)
GI50 (SK-MEL-5): > 10 µM (inactive)
GI50 (HOP-92): > 10 µM (inactive)
GI50 (M14): > 10 µM (inactive)
GI50 (A549): > 10 µM (inactive)
GI50 (SK-MEL-2): > 10 µM (inactive)
GI50 (NCI/ADR-RES): > 10 µM (inactive)
GI50 (MDA-MB-231): > 10 µM (inactive)
GI50 (CCRF-CEM): > 10 µM (inactive)
GI50 (SNB-19): > 10 µM (inactive)
GI50 (NCI-H460): > 10 µM (inactive)
GI50 (TK-10): > 10 µM (inactive)
GI50 (MCF7): > 10 µM (inactive)
GI50 (KM12): > 10 µM (inactive)
GI50 (HCT-15): > 10 µM
GI50 (SN12C): > 10 µM (inactive)
GI50 (HOP-62): > 10 µM (inactive)
GI50 (NCI-H23): > 10 µM (inactive)
GI50 (HCT-116): > 10 µM (inactive)
GI50 (UACC-62): > 10 µM (inactive)
GI50 (NCI-H226): > 10 µM (inactive)
GI50 (U-251): > 10 µM (inactive)
GI50 (DU-145): > 10 µM (inactive)
GI50 (786-0): > 10 µM (inactive)
GI50 (SW-620): > 10 µM (inactive)
GI50 (RPMI-8226): > 10 µM (inactive)
GI50 (SF-268): > 10 µM (inactive)
GI50 (UACC-257): > 10 µM (inactive)
GI50 (NCI-H522): > 10 µM (inactive)
GI50 (LOX IMVI): > 10 µM (inactive)
GI50 (SK-MEL-28): > 10 µM (inactive)
GI50 (SF-539): > 10 µM (inactive)
GI50 (SNB-75): > 10 µM (inactive)
GI50 (OVCAR-3): > 10 µM (inactive)
GI50 (A498): > 10 µM (inactive)
GI50 (SK-OV-3): > 10 µM (inactive)
GI50 (T47D): > 10 µM (inactive)
GI50 (HL-60): > 10 µM (inactive)
GI50 (ACHN): > 10 µM (inactive)
GI50 (HCC 2998): > 10 µM (inactive)
GI50 (HT-29): > 10 µM (inactive)
GI50 (MOLT-4): > 10 µM (inactive)
GI50 (IGROV-1): > 10 µM (inactive)
GI50 (COLO 205): > 10 µM (inactive)
